Results: patent US20190099404A1, “ANALGESIC COMPOUNDS” (ZENO ROYALTIES & MILESTONES, LLC, priority 2016, published 2019)

Tested on: male ICR mice
Experiment: Formalin Paw Test
Type: in vivo
Conditions: 30 mg/kg, intraperitoneal, given 10 minutes before formalin; for Early Phase: early/acute phase (0-10 minutes) after 2% formalin in hind paw; for Late Phase: late/tonic phase (10-35 minutes) after 2% formalin in hind paw
Protocol: One test compound or the vehicle was administered to each mouse in each test group (8 mice per group). Non-fasted male ICR mice weighing 23±3 g were used. Test compounds were administered at a concentration of 30 mg/kg; morphine was administered at a concentration of 10 mg/kg; and acetaminophen was administered at a concentration of >100 mg/kg. The control group received the vehicle (5% DMSO/15% PEG400/10% HPbCD/0.9% Saline). After 10 minutes, a 2% formalin solution (0.02 mL) was injected into one hind paw (sub-plantar) of each mouse. Responses were measured every 5 minutes after the formalin injection for 35 minutes.
The results in Table A are for intraperitoneal administration. In Table A, ‘A’ designates <70 licks/sec, ‘B’ designates ≥70 licks/sec and <165 licks/sec, and ‘C’ designates ≥165 licks/sec.

| SMILES | Early Phase | Late Phase |
| --- | --- | --- |
| Nc1ccc2[nH]cnc2c1 [Compound 1] | B (‘B’ designates ≥70 licks/sec and <165 licks/sec) | C (‘C’ designates ≥165 licks/sec) |
| Cn1ncc2cc(N)ccc21 [Compound 2] | A (‘A’ designates <70 licks/sec) | B (‘B’ designates ≥70 licks/sec and <165 licks/sec) |
| NCc1cc2ccccn2n1 [Compound 3] | A (‘A’ designates <70 licks/sec) | C (‘C’ designates ≥165 licks/sec) |
| NCc1cc2cc(F)ccc2[nH]1 [Compound 4] | A (‘A’ designates <70 licks/sec) | A (‘A’ designates <70 licks/sec) |
| NCc1nc2cc(C(F)(F)F)ccc2s1 [Compound 5] | A (‘A’ designates <70 licks/sec) | A (‘A’ designates <70 licks/sec) |
| Nc1nc2ccc(C(F)(F)F)cc2s1 [Compound 6] | A (‘A’ designates <70 licks/sec) | A (‘A’ designates <70 licks/sec) |
| NCCc1nc2ccc(F)cc2[nH]1 [Compound 7] | B (‘B’ designates ≥70 licks/sec and <165 licks/sec) | A (‘A’ designates <70 licks/sec) |
| NCc1nc2cc(F)ccc2[nH]1 [Compound 9] | A (‘A’ designates <70 licks/sec) | A (‘A’ designates <70 licks/sec) |
| CC(C)(C)c1ccc2nc(N)sc2c1 [Compound 10] | A (‘A’ designates <70 licks/sec) | A (‘A’ designates <70 licks/sec) |
| NCc1ccc2cncn2c1 [Compound 11] | B (‘B’ designates ≥70 licks/sec and <165 licks/sec) | C (‘C’ designates ≥165 licks/sec) |
